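96-well plates; 48 h exposure; 5 concentrations. Endpoints by linear interpolation between flanking doses. Not reached: highest tested concentration assigned. TGI denotes the concentration required for complete inhibition of growth.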

The first assay concerns SN12C renal. The experiment in a line: NCI-60 cell line screen, 48 h.
`N=c1oc2cc(O)ccc2cc1C(=O)NCc1ccccc1` came in with a TGI of 48.8 µM.
Still for that read-out and setting: in the case of `COc1cc(/C=C/C(=O)c2ccc(NS(=O)(=O)c3cc([N+](=O)[O-])ccc3C)cc2)cc(OC)c1OC` it was 4.52 µM.
On the same count and under the same terms, in the case of `C=CCOc1ccc(/C(N=Nc2ccc([N+](=O)[O-])cc2)=N/NC(=O)c2ccccc2)cc1OC` it was more than 100 µM; in that of `NC(=O)N/N=C1\CCCCc2ccccc21`, more than 10 µM.
The same measure, in the same setting: in the case of `CCOC(=O)c1ccc(N=C2C(=S)N(c3ccc(C(=O)OCC)cc3)C(=N)N2/N=C/c2ccccc2)cc1` it was 41.3 µM.

For a further assay, the system named is PC-3 prostate. Nature of the assay: NCI-60 cell line screen, 48 h.
The compound `COc1ccc2oc(=N)c(C(=O)NCc3ccccc3)cc2c1` showed a TGI of more than 100 µM.
Same read-out and setting: in the case of `CC(=O)N1C(c2[nH]c3ccccc3c2-c2ccccc2)CCN1c1ccccc1` (centres undefined) it was more than 10 µM; in that of `CC(=O)N1C(Nc2ccccn2)CCN1c1ccccc1` (centres undefined), more than 10 µM.
On the same count and under the same terms, in the case of `CCNCCNc1c2ccccc2nc2ccccc12` it was 3.95 µM; in that of `CCOC(=O)c1c(N)sc2c1C(C(=O)OCC)CC2` (centres undefined), more than 100 µM; in that of `CC(=O)OCC1OC(SC2=N/C(=C\c3cc4c(=O)c5ccccc5sc4s3)C(=O)N2c2ccccc2)C(OC(C)=O)C(OC(C)=O)C1OC(C)=O` (centres undefined), more than 100 µM.
Still for that read-out and setting: in the case of `CCCC1(NC(=O)C(F)(F)F)CC(OC)OC2COC(c3ccccc3)OC21` (centres undefined) it was more than 100 µM.
Take `COC(O)C(=O)c1c2c(cc3c1CC1(Cc4cc5c(cc4C1)CCC5)C3)CCC2` (centres undefined): the TGI was 30.8 µM.
Consider `CCOC(=O)N(Cc1cccs1)c1cc(OC)c(OC)c(OC)c1`, for which the TGI was 98.9 µM.
For the compound `COc1ccc(/C=C2\C(=O)N(C3OC(COC(C)=O)C(OC(C)=O)C(OC(C)=O)C3OC(C)=O)c3ccccc3N=C2N)cc1` (centres undefined), the TGI was 83.3 µM.
Same read-out and setting: in the case of `O=S(=O)(O)c1ccc(O)c2ncc(Cl)cc12` it was more than 100 µM; in that of `N=c1oc2cc(O)ccc2cc1C(=O)NCc1ccccc1`, more than 100 µM.
On the same count and under the same terms, in the case of `COc1cc(/C=C/C(=O)c2ccc(NS(=O)(=O)c3cc([N+](=O)[O-])ccc3C)cc2)cc(OC)c1OC` it was 19.5 µM; in that of `C=CCOc1ccc(/C(N=Nc2ccc([N+](=O)[O-])cc2)=N/NC(=O)c2ccccc2)cc1OC`, more than 100 µM; in that of `NC(=O)N/N=C1\CCCCc2ccccc21`, more than 10 µM.
For the compound `CCOC(=O)c1ccc(N=C2C(=S)N(c3ccc(C(=O)OCC)cc3)C(=N)N2/N=C/c2ccccc2)cc1`, the TGI is 18.4 µM.

The test system of the next assay is RXF 393 renal. Nature of the assay: NCI-60 cell line screen, 48 h.
For `COc1ccc2oc(=N)c(C(=O)NCc3ccccc3)cc2c1`, the TGI worked out at 42.4 µM.
Still for that read-out and setting: in the case of `CC(=O)N1C(c2[nH]c3ccccc3c2-c2ccccc2)CCN1c1ccccc1` (centres undefined) it was more than 10 µM; in that of `CC(=O)N1C(Nc2ccccn2)CCN1c1ccccc1` (centres undefined), more than 10 µM; in that of `CCNCCNc1c2ccccc2nc2ccccc12`, 3.31 µM.
The same measure, in the same setting: in the case of `CCOC(=O)c1c(N)sc2c1C(C(=O)OCC)CC2` (centres undefined) it was more than 100 µM; in that of `CC(=O)OCC1OC(SC2=N/C(=C\c3cc4c(=O)c5ccccc5sc4s3)C(=O)N2c2ccccc2)C(OC(C)=O)C(OC(C)=O)C1OC(C)=O` (centres undefined), more than 100 µM.
The same measure, in the same setting: in the case of `CCCC1(NC(=O)C(F)(F)F)CC(OC)OC2COC(c3ccccc3)OC21` (centres undefined) it was more than 100 µM.
Take `COC(O)C(=O)c1c2c(cc3c1CC1(Cc4cc5c(cc4C1)CCC5)C3)CCC2` (centres undefined): the TGI worked out at 29 µM.
On the same count and under the same terms, in the case of `CCOC(=O)N(Cc1cccs1)c1cc(OC)c(OC)c(OC)c1` it was more than 100 µM; in that of `COc1ccc(/C=C2\C(=O)N(C3OC(COC(C)=O)C(OC(C)=O)C(OC(C)=O)C3OC(C)=O)c3ccccc3N=C2N)cc1` (centres undefined), 62.2 µM; in that of `O=S(=O)(O)c1ccc(O)c2ncc(Cl)cc12`, more than 100 µM.
In the case of `N=c1oc2cc(O)ccc2cc1C(=O)NCc1ccccc1`, the TGI was determined as 85 µM.
The same measure, in the same setting: in the case of `COc1cc(/C=C/C(=O)c2ccc(NS(=O)(=O)c3cc([N+](=O)[O-])ccc3C)cc2)cc(OC)c1OC` it was 11.1 µM; in that of `C=CCOc1ccc(/C(N=Nc2ccc([N+](=O)[O-])cc2)=N/NC(=O)c2ccccc2)cc1OC`, more than 100 µM.
In turn, `NC(=O)N/N=C1\CCCCc2ccccc21` came in with a TGI of more than 10 µM.
Still for that read-out and setting: in the case of `CCOC(=O)c1ccc(N=C2C(=S)N(c3ccc(C(=O)OCC)cc3)C(=N)N2/N=C/c2ccccc2)cc1` it was 19.3 µM.

The next assay relates to IGROV1 ovarian. Nature of the assay: NCI-60 cell line screen, 48 h.
Compound `COc1ccc2oc(=N)c(C(=O)NCc3ccccc3)cc2c1` yielded a TGI of 60.8 µM.
On the same count and under the same terms, in the case of `CC(=O)N1C(c2[nH]c3ccccc3c2-c2ccccc2)CCN1c1ccccc1` (centres undefined) it was more than 10 µM.
Take `CC(=O)N1C(Nc2ccccn2)CCN1c1ccccc1` (centres undefined): the TGI is more than 10 µM.
Still for that read-out and setting: in the case of `CCNCCNc1c2ccccc2nc2ccccc12` it was 9.82 µM; in that of `CCOC(=O)c1c(N)sc2c1C(C(=O)OCC)CC2` (centres undefined), more than 100 µM; in that of `CC(=O)OCC1OC(SC2=N/C(=C\c3cc4c(=O)c5ccccc5sc4s3)C(=O)N2c2ccccc2)C(OC(C)=O)C(OC(C)=O)C1OC(C)=O` (centres undefined), more than 100 µM.
Same read-out and setting: in the case of `CCCC1(NC(=O)C(F)(F)F)CC(OC)OC2COC(c3ccccc3)OC21` (centres undefined) it was more than 100 µM; in that of `COC(O)C(=O)c1c2c(cc3c1CC1(Cc4cc5c(cc4C1)CCC5)C3)CCC2` (centres undefined), 26 µM.
The same measure, in the same setting: in the case of `CCOC(=O)N(Cc1cccs1)c1cc(OC)c(OC)c(OC)c1` it was more than 100 µM.
In turn, `COc1ccc(/C=C2\C(=O)N(C3OC(COC(C)=O)C(OC(C)=O)C(OC(C)=O)C3OC(C)=O)c3ccccc3N=C2N)cc1` (centres undefined) registered a TGI of more than 100 µM.
Consider `O=S(=O)(O)c1ccc(O)c2ncc(Cl)cc12`, for which the TGI was more than 100 µM.
Still for that read-out and setting: in the case of `N=c1oc2cc(O)ccc2cc1C(=O)NCc1ccccc1` it was more than 100 µM; in that of `COc1cc(/C=C/C(=O)c2ccc(NS(=O)(=O)c3cc([N+](=O)[O-])ccc3C)cc2)cc(OC)c1OC`, 17.1 µM.
In turn, `C=CCOc1ccc(/C(N=Nc2ccc([N+](=O)[O-])cc2)=N/NC(=O)c2ccccc2)cc1OC` registered a TGI of more than 100 µM.
On the same count and under the same terms, in the case of `CCOC(=O)c1ccc(N=C2C(=S)N(c3ccc(C(=O)OCC)cc3)C(=N)N2/N=C/c2ccccc2)cc1` it was more than 100 µM.

In a further assay the test system is T-47D breast. Nature of the assay: NCI-60 cell line screen, 48 h.
As to `COc1ccc2oc(=N)c(C(=O)NCc3ccccc3)cc2c1`, the TGI is 44.6 µM.
Same read-out and setting: in the case of `CC(=O)N1C(c2[nH]c3ccccc3c2-c2ccccc2)CCN1c1ccccc1` (centres undefined) it was more than 10 µM; in that of `CC(=O)N1C(Nc2ccccn2)CCN1c1ccccc1` (centres undefined), more than 10 µM.
Still for that read-out and setting: in the case of `CCNCCNc1c2ccccc2nc2ccccc12` it was 8.41 µM.
Still for that read-out and setting: in the case of `CCOC(=O)c1c(N)sc2c1C(C(=O)OCC)CC2` (centres undefined) it was more than 100 µM.
For the compound `CC(=O)OCC1OC(SC2=N/C(=C\c3cc4c(=O)c5ccccc5sc4s3)C(=O)N2c2ccccc2)C(OC(C)=O)C(OC(C)=O)C1OC(C)=O` (centres undefined), the TGI is more than 100 µM.
The same measure, in the same setting: in the case of `CCCC1(NC(=O)C(F)(F)F)CC(OC)OC2COC(c3ccccc3)OC21` (centres undefined) it was more than 100 µM; in that of `COC(O)C(=O)c1c2c(cc3c1CC1(Cc4cc5c(cc4C1)CCC5)C3)CCC2` (centres undefined), 50.4 µM.
`CCOC(=O)N(Cc1cccs1)c1cc(OC)c(OC)c(OC)c1` gave a TGI of more than 100 µM.
The same measure, in the same setting: in the case of `COc1ccc(/C=C2\C(=O)N(C3OC(COC(C)=O)C(OC(C)=O)C(OC(C)=O)C3OC(C)=O)c3ccccc3N=C2N)cc1` (centres undefined) it was 40.8 µM.
Still for that read-out and setting: in the case of `O=S(=O)(O)c1ccc(O)c2ncc(Cl)cc12` it was more than 100 µM; in that of `N=c1oc2cc(O)ccc2cc1C(=O)NCc1ccccc1`, 33.7 µM.
Consider `COc1cc(/C=C/C(=O)c2ccc(NS(=O)(=O)c3cc([N+](=O)[O-])ccc3C)cc2)cc(OC)c1OC`, for which the TGI was 38.6 µM.
The same measure, in the same setting: in the case of `C=CCOc1ccc(/C(N=Nc2ccc([N+](=O)[O-])cc2)=N/NC(=O)c2ccccc2)cc1OC` it was more than 100 µM; in that of `NC(=O)N/N=C1\CCCCc2ccccc21`, more than 10 µM.
For the compound `CCOC(=O)c1ccc(N=C2C(=S)N(c3ccc(C(=O)OCC)cc3)C(=N)N2/N=C/c2ccccc2)cc1`, the TGI came out at 63.1 µM.

The next assay concerns SK-OV-3 ovarian. Nature of the assay: NCI-60 cell line screen, 48 h.
In the case of `COc1ccc2oc(=N)c(C(=O)NCc3ccccc3)cc2c1`, the TGI was found to be 56.7 µM.

(Values after PubChem BioAssay (NCI).)
